Experimental data as given in patent publication US20080293681A1, “SPRAYABLE PHARMACEUTICAL COMPOSITIONS COMPRISING A VITAMIN D DERIVATIVE AND AN OILY PHASE” (GALDERMA S.A., priority 2005, published 2008).

How the values were obtained:
[1] = Stability of calcitriol in Cetiol SN (cetearyl isononanoate), HPLC assay against reference substance; type: physicochemical; details: 30 ppm in Cetiol SN with 0.4% BHT
Excerpt: (§1) The following example describes the stability data for calcitriol in the various excipients preferred for the composition according to the invention, including caprylic/capric triglycerides and cetearyl isononanoate. Stability of calcitriol in Cetiol SN (cetearyl isononanoate) Solution of calcitriol at 30 ppm in qs 100% of Cetiol SN (cetearyl isononanoate) in the presence of 0.4% of BHT. Assaying technique by HPLC against reference substance. At the initial time (T0), it is considered that the composition contains 100% of calcitriol. Measured concentration of calcitriol as % relative to T0: […]

[2] = Stability of calcitriol in Miglyol 812 (caprylic/capric triglycerides), HPLC assay against reference substance; type: physicochemical; details: 30 ppm in Miglyol 812 with 0.4% BHT
Excerpt: as §1, with “in Miglyol 812 (caprylic/capric triglycerides)” for “in Cetiol SN (cetearyl isononanoate)”, “of Miglyol 812” for “of Cetiol SN (cetearyl isononanoate)”

C=C1/C(=C\C=C2/CCC[C@]3(C)[C@@H]([C@H](C)CCCC(C)(C)O)CC[C@@H]23)C[C@@H](O)C[C@@H]1O [calcitriol]
Measured concentration of calcitriol as % relative to T0 ([1]; +4° C., T 2 weeks): 98.6% | Measured concentration of calcitriol as % relative to T0 ([1]; +4° C., T 4 weeks): 98.1% | Measured concentration of calcitriol as % relative to T0 ([1]; +40° C., T 2 weeks): 99.0% | Measured concentration of calcitriol as % relative to T0 ([1]; +40° C., T 4 weeks): 98.9% | Measured concentration of calcitriol as % relative to T0 ([1]; AT, T 2 weeks): 98.7% | Measured concentration of calcitriol as % relative to T0 ([1]; AT, T 4 weeks): 98.4% | Measured concentration of calcitriol as % relative to T0 ([2]; +4° C., T 2 weeks): 98.3% | Measured concentration of calcitriol as % relative to T0 ([2]; +4° C., T 4 weeks): 105.2% | Measured concentration of calcitriol as % relative to T0 ([2]; +40° C., T 2 weeks): 91% | Measured concentration of calcitriol as % relative to T0 ([2]; +40° C., T 4 weeks): 93.8% | Measured concentration of calcitriol as % relative to T0 ([2]; AT, T 2 weeks): 95.1% | Measured concentration of calcitriol as % relative to T0 ([2]; AT, T 4 weeks): 98.0%
